According to ChEMBL document CHEMBL3867463, “Cytotoxic lanostanes from fruits of Garcinia wallichii Choisy (Guttiferae)” (Bioorg Med Chem Lett, 2016):

Legend:
[1] = Cytotoxicity against human KB cells by SRB method; format: functional; settings: read-out: ED50 (the source's name)
[2] = Cytotoxicity against mouse P388 cells by SRB method; format: functional; settings: read-out: ED50 (the source's name)
[3] = Cytotoxicity against human colon cancer cells by SRB method; format: functional; settings: Cancer cell lines, read-out: ED50 (the source's name)
[4] = Cytotoxicity against rat ASK cells by SRB method; format: functional; settings: read-out: ED50 (the source's name)
[5] = Cytotoxicity against human HT-29 cells by SRB method; format: functional; settings: read-out: ED50 (the source's name)
[6] = Cytotoxicity against human MCF7 cells by SRB method; format: functional; settings: read-out: ED50 (the source's name)
[7] = Cytotoxicity against human HEK293 cells by SRB method; format: toxicity, cell-based; settings: read-out: ED50 (the source's name)
[8] = Cytotoxicity against human A549 cells by SRB method; format: functional; settings: read-out: ED50 (the source's name)

| Structure (SMILES) | EC50 [1] [µM] | EC50 [2] [µM] | EC50 [3] [µM] | EC50 [4] [µM] | EC50 [5] [µM] | EC50 [6] [µM] | CC50 [7] [µM] | EC50 [8] [µM] |
| --- | --- | --- | --- | --- | --- | --- | --- | --- |
| C/C(=C\C=C\[C@@H](C)[C@H]1CC[C@@]2(C)[C@@H]3CC[C@H]4C(C)(C)C(=O)CC[C@]4(C)[C@@]3(O)CC[C@]12C)C(=O)O | > 50 | > 50 | > 50 | > 50 | > 50 | > 50 | > 50 | > 50 |
| COC(=O)/C(C)=C/C=C/[C@@H](C)[C@H]1CC[C@@]2(C)[C@@H]3CC[C@H]4C(C)(C)[C@]5(O)CC[C@]4(CO5)[C@@]3(O)CC[C@]12C | > 50 | > 50 | > 50 | > 50 | > 50 | > 50 | > 50 | > 50 |
| C/C(=C\C=C\[C@@H](C)[C@H]1CC[C@@]2(C)[C@@H]3CC[C@H]4C(C)(C)[C@]5(O)CC[C@]4(CO5)[C@@]3(O)CC[C@]12C)C(=O)O | 4.79 | 3.91 | 4.73 | 7.63 | 5.39 | 6.19 | 6.89 | 5.69 |
| C/C(=C\CC[C@@H](C)[C@H]1CC[C@@]2(C)[C@@H]3CC[C@H]4C(C)(C)[C@@H](O)CC[C@]4(C)[C@@]3(O)CC[C@]12C)C(=O)O | 29.9 | 24.1 | > 50 | > 50 | 23.7 | > 50 | > 50 | 35.1 |
| COC(=O)/C(C)=C/C=C/[C@@H](C)[C@H]1CC[C@@]2(C)[C@@H]3CC[C@H]4C(C)(C)C(=O)CC[C@]4(C)C3=CC[C@]12C | > 50 | > 50 | > 50 | > 50 | > 50 | > 50 | > 50 | > 50 |
| C/C(=C\CC[C@@H](C)[C@H]1CC[C@@]2(C)[C@@H]3CC[C@H]4C(C)(C)C(=O)CC[C@]4(C)[C@@]3(O)CC[C@]12C)C(=O)O | > 50 | > 50 | > 50 | > 50 | > 50 | > 50 | > 50 | > 50 |
| Cc1c2ccncc2c(C)c2c1[nH]c1ccccc12 [ELLIPTECINE] | 2.03 | 2.15 | 2.19 | 2.31 | 2.43 | 2.11 | 2.03 | 1.26 |
